# Assay results published in US11746103B2, “ALK-5 inhibitors and uses thereof” (Sumitomo Pharma Oncology, Inc., priority 2020, dated 2023).
# Experiments:
# [1] = test system: TGF-beta induced SMAD signaling; assay: RDSR (RD SMAD reporter) Cellular Reporter Assay; assay type: cell-based; settings: Homo sapiens; 200 pg/ml rhTGF-beta1, 24 h; read-out: RD-SMAD reporter activity
# How it was run: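 Human rhabdomyosarcoma RD cells stably carrying an SBE-driven luc2P luciferase reporter. Inhibition of SMAD signaling was quantified from ONE-Glo luminescence.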
# [2] = Longitudinal PK/PD analysis in A549 xenograft mouse model (plasma and tumor PK); assay type: in vivo; settings: 75 mg/kg single oral dose
# Experimental: In this study, p-SMAD2 (Ser465/Ser467) and a housekeeping gene (GAPDH) were measured at six timepoints from zero (established using vehicle-treated animals) up to twenty-four hours post dose for a single drug dose of seventy-five milligrams per kilogram per subject (three subjects per dosing group).
# For this study, xenografts were prepared and implanted in mice as follows. At five weeks of age, female athymic nude mice (purchased from Charles River) were injected with approximately 3.2 million A549 cells (ATCC, CCL-185). Cells were harvested and resuspended in plain RPMI media (no phenol red added) and Matrigel (Corning 356237) at a one-to-one ratio, and two hundred-microliters of the cell suspension were injected into the right hind flank of each mouse. Tumors were measured every three days by caliper, and as tumors reached an average of ninety millimeters cubed, mice were randomized in groups of three. Each of the test compounds (Ex-10 and Ex-11) was resuspended in 1-methyl-2-pyrrolidinone (Sigma, 494496) (10%) plus 20% Solutol (Sigma 42966) in water (90%). The drug suspensions were sonicated for fifteen minutes to generate a fine particle suspension before being given to the test subjects. Subjects were dosed (per oral gavage) with the suspension. A vehicle control group with three mice was used to establish the baseline and timepoint zero of phospho-SMAD-2 in the tumor xenograft. The test compounds were administered to the respective subject groups at seventy-five milligrams per kilogram. Samples were obtained post administration of test compounds at 20 minutes, one hour, two hours, four hours, and twenty-four hours. Tumors were harvested, snap frozen and stored at negative eighty degrees Celsius until further processing. Plasma was collected from all animals by collecting whole blood via cardiac puncture, followed by centrifugation in tubes containing EDTA (BD, microtainer tubes, 365974). A group of three mice receiving vehicle only served as the zero timepoint for both drug groups. The phospho-SMAD-2 levels were determined using the Bio-Plex Pro™ Phospho-Smad2 (Ser465/Ser467) Set (BioRad 171V50019M). The phospho-SMAD-2 levels were normalized to GAPDH (MILLIPLEX MAP GAPDH Total Magnetic Bead MAPmate™, Millipore 46-667MAG) levels from each sample. All analytes were analyzed in a multiplex fashion with the Bio-Plex Pro Cell Signaling Reagent Kit (BioRad 171304006M). Frozen tumor samples (fifteen to thirty milligrams) were lysed in 100 μl lysis buffer, processed in a bead mill tube, and centrifuged. The resulting lysate was used at 1:50 dilution for the assay according to the manufacturer's instructions. Bead suspension was analyzed using the Luminex system (MAGPIX).
# [3] = test system: TGF-β1 mediated alpha-SMA expression in primary human bronchial fibroblasts derived from IPF patients; assay: Fibroblast to Myofibroblast Transformation (FMT) assay; settings: for max PIN of TGF-β1 mediated alpha-SMA expression: in at least two donors
# Experimental: To test the ability of compounds of the invention to inhibit the TGF-β1 dependent transition of fibroblasts to myofibroblasts in a relevant disease model of IPF, a study was carried out using an FMT assay employing lung fibroblasts from IPF patients. In this model the transition of fibroblasts to myofibroblasts is determined by the expression of the biomarker alpha smooth muscle actin (SMA).
# Each drug concentration condition was evaluated in biological duplicates. One hour after compound addition, cells were stimulated with 1.25 ng/ml of TGF-01 and cultured for 72 hours thereafter. At the end of 72 hours cells were fixed using formaldehyde. The results were generated using high content imaging after staining cells using the nuclear stain DAPI as well as evaluation of the expression of alpha SMA. […] As a negative control 0.1% DMSO was used matching the DMSO concentration in treated wells.
# [4] = test system: Cloudman S91 melanoma; assay: Cloudman S91 melanoma syngeneic study; settings: single agents
# Experimental: The objective of this study was to evaluate preclinically the in vivo therapeutic efficacy of EX-11+/−anti-PD-1 therapy for the treatment of subcutaneous Cloudman S91 melanoma model in DBA/2 mice.
# Female, DBA/2 mice (aged 7-9 weeks) were inoculated subcutaneously in the right flank region with Cloudman S91 melanoma cells (2×10^5) in 0.1 ml of PBS. Once the mean tumor size reached approximately 100 mm^3 (day 19), 60 mice were randomized to 6 treatment arms (10 mice per arm).
# The anti-PD-1 inhibitor used in this study was a product of Crownbio/OEM (Cat #: CVP033, Lot #: 0920L765). The vehicle for the anti-BD-1 inhibitor was PBS. The drug was injected intraperitoneally (i.p.), bi-weekly (BIW) for 3 weeks. The vehicle for EX-11 was 1000 tween-20, 900% ddH2O. The vehicle used for EX-11 was also used for the “Vehicle” arm of the study. EX-11 and the vehicle were delivered via oral gavage (p.o.), bi-daily (BID) for 21 days.
# Body weights and tumor volumes were measured 3 times per week. Tumor volumes were measured in two dimensions using a caliper, and the volume was expressed in mm^3 using the formula: V=(L×W×W)/2, where V is tumor volume, L is tumor length (the longest tumor dimension) and W is tumor width (the longest tumor dimension perpendicular to L).
# The study was terminated 50 days post-inoculation. […]
# [5] = test system: 4T1-luc tumors; assay: 4T1 syngeneic TNBC model; assay type: in vivo, mouse
# Experimental: Tumor measurements were performed via digital calipers.
# The vehicle for anti-PD-1 inhibitor was PBS.
# The study dosing phase was 21 days. At the end of the study, animals were injected with luciferin, then sacrificed. Ex vivo imaging of the lung and liver tissue was performed to assess metastasis.
# [6] = test system: pSmad2 in KGN cells; assay: pSmad2 Luminex assay in KGN cell line; assay type: cell-based; settings: 2 hours, read-out: pSmad2 pathway inhibition
# Experimental: KGN cells were incubated with three 10-fold dilutions of EX-11 or DMSO for 2 hours. Cells were harvested and lysed, and protein concentration was quantified by BCA. 10 μg of total protein was added to the assay plate provided in the Milliplex TGFβ 6-plex kit with GAPDH MapMate beads, and the manufacturer's protocol was followed. Data was collected on the MagPix Xmap (Luminex).
SMILES,IC50 [1] [nM],drug in plasma and tumor at 24 hours post drug administration [2],LogM IC50 αSMA ([3]; donor IPF05) [LogM],Max PIN (%) ([3]; donor IPF05),potentially toxic (>25% loss of nuclei) ([3]; donor IPF05),LogM IC50 αSMA ([3]; donor IPF06) [LogM],Max PIN (%) ([3]; donor IPF06),LogM IC50 αSMA ([3]; donor IPF08) [LogM],Max PIN (%) ([3]; donor IPF08),potentially toxic (>25% loss of nuclei) ([3]; donor IPF08),max PIN of TGF-β1 mediated alpha-SMA expression [3],other results
"Cc1cccc2c(Nc3ccnc(Nc4ccc(N5CCOCC5)cc4)n3)cnnc12 [EX-10, N4-(8-methylcinnolin-4-yl)-N2-(4-morpholino-phenyl)-pyrimidine-2,4-diamine]",< 100,cleared out of the system completely,−6.8,106.4,>−5.5,−6.7,110.3,−7.0,100.3,>−5.5,greater than 75,drug concentration in plasma and tumor over time [2]: spiked 20 minutes to 1-hour post drug administration and stayed high up to 4 hours post drug administration
"Cc1cccc2c(Nc3ccnc(Nc4cccc(N5CCOCC5)c4)n3)cnnc12 [EX-11, N4-(8-methylcinnolin-4-yl)-N2-(3-morpholinophenyl)pyrimidine-2,4-diamine]",< 100,cleared out of the system,−7.2,107.2,>−6.0,−7.0,112.9,−7.3,103.7,>−6.0,greater than 75,"survival compared with the vehicle control [4]: did not exhibit an increase in survival; tumor growth inhibition (TGI) compared to vehicle ([5]; EX-11 at 75 mg/kg PO BID x 21 days): did not result in significant TGI; tumor growth inhibition (TGI) compared to vehicle ([5]; EX-11 at 150 mg/kg PO BID x 21 days): 38%; ex vivo luminescence of liver (metastasis) compared to vehicle ([5]; EX-11 at 150 mg/kg where given): stronger reduction in luminescence; time of maximum drug concentration in plasma and tumor [2]: around 4 hours; potentially toxic (>25% loss of nuclei) ([3]; donor IPF06): >−5.5; inhibition of TGF-β-mediated alpha-SMA expression ([3]; in all three donors): full concentration-dependent inhibition; inhibition at 0.01 µM ([6]; Homo sapiens, 10 nM): 17%; inhibition at 0.1 µM ([6]; Homo sapiens, 100 nM): 74%; inhibition at 1 µM ([6]; Homo sapiens, 1,000 nM): 97%"
